Blank lines part the entries; values can stand above or below the molecule they belong to.
Columns and labels:
Thymidine phosphorylase = target: T1, Thymidine phosphorylase (Homo sapiens, UniProt P19971)
T1 sequence (P19971 whole entry): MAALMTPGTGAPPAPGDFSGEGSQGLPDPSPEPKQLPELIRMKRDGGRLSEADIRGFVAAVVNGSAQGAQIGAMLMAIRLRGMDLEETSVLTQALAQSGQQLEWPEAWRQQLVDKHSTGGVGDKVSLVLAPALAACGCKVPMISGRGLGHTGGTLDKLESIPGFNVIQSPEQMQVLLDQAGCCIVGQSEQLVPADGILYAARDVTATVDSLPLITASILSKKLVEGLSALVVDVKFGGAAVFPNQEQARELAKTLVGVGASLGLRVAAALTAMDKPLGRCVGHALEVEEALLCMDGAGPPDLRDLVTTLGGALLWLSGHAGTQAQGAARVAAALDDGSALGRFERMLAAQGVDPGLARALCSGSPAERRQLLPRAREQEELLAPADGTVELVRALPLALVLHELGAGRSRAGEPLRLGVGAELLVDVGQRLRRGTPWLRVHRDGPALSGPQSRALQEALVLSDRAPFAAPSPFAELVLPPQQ

NIH3T3 [1] = assay: Cytotoxicity against mouse 3T3 cells at 50 uM by SRB assay; assay type: cell-based; conditions: nih3t3, 50 µM
NIH3T3 [2] = assay: Cytotoxicity against mouse 3T3 cells by SRB assay; assay type: functional, cell-based
[3] = Stability in bovine serum assessed as parent pure compound remaining at 1 mg measured within 10 days by HPLC analysis; assay type: ADME, cell-free, Bos taurus; conditions: cattle, 240 h
[4] = Stability in water assessed as parent pure compound remaining at 1 mg measured within 10 days by HPLC analysis (reference value: 95%); assay type: physicochemical; conditions: read-out: Stability
[5] = substrate: Cc1cc(=O)[nH]c(=O)n1/C(=N\O)c1ccc(Cl)c(Cl)c1; conditions: Homo sapiens

Molecule: C[C@@H]1C[C@@H]([C@H](O)CC2CC(=O)NC(=O)C2)C(=O)[C@@H](C)C1 [CYCLOHEXIMIDE]
IC50 (NIH3T3 [2]): 0.3 µM

Molecule: Cc1cc(=O)[nH]c(=O)n1/C(=N\O)c1cccs1
IC50 (Thymidine phosphorylase): 39.9 µM

Molecule: Cc1cc(=O)[nH]c(=O)n1/C(=N\O)c1ccccc1F
IC50 (Thymidine phosphorylase): 49.3 µM

Molecule: Cc1cc(=O)[nH]c(=O)n1/C(=N\O)c1cccc(F)c1
IC50 (Thymidine phosphorylase): 41.2 µM

Molecule: Cc1cc(=O)[nH]c(=O)n1C(=O)c1ccccc1
IC50 (Thymidine phosphorylase): 92.4 µM

Molecule: O=c1[nH]c(=O)n(/C(=N/O)c2ccc(F)cc2)cc1I
IC50 (Thymidine phosphorylase): 41.3 µM

Molecule: CO/N=C(\c1ccccc1)n1c(C)cc(=O)[nH]c1=O
IC50 (Thymidine phosphorylase): 85.6 µM

Molecule: O=c1[nH]c(=O)n(/C(=N/O)c2ccccc2F)cc1I
IC50 (Thymidine phosphorylase): 53.7 µM

Molecule: Cc1cc(=O)[nH]c(=O)n1/C(=N\O)c1ccc(F)cc1
IC50 (Thymidine phosphorylase): 44.1 µM

B1: Thymidine phosphorylase (Homo sapiens), P19971 (protein)
chain: T1 sequence (P19971 whole entry)
Km [5]: 2000 µM

The remaining molecules from weak to strong by IC50 (Thymidine phosphorylase), led by results:

IC50 (Thymidine phosphorylase): 37.3 µM
Molecule: O=c1[nH]c(=O)n(/C(=N/O)c2ccccc2)cc1I

IC50 (Thymidine phosphorylase): 33.4 µM
Molecule: COc1cccc(/C(=N\O)n2cc(I)c(=O)[nH]c2=O)c1

IC50 (Thymidine phosphorylase): 25.2 µM
Molecule: COc1ccc(/C(=N\O)n2cc(I)c(=O)[nH]c2=O)cc1

IC50 (Thymidine phosphorylase): 25.1 µM
Molecule: COc1cccc(/C(=N/O)n2c(C)cc(=O)[nH]c2=O)c1

IC50 (Thymidine phosphorylase): 22.5 µM
Molecule: Cc1ccc(/C(=N\O)n2cc(I)c(=O)[nH]c2=O)cc1

IC50 (Thymidine phosphorylase): 21.4 µM
Molecule: Cc1cc(=O)[nH]c(=O)n1/C(=N\O)c1ccccc1

IC50 (Thymidine phosphorylase): 16.5 µM
Molecule: COc1ccc(/C(=N/O)n2c(C)cc(=O)[nH]c2=O)cc1

IC50 (Thymidine phosphorylase): 15.9 µM
Molecule: Cc1cccc(/C(=N/O)n2c(C)cc(=O)[nH]c2=O)c1

IC50 (Thymidine phosphorylase): 15.6 µM
Molecule: O=c1[nH]c(=O)n(/C(=N/O)c2ccc(Cl)cc2)cc1I

IC50 (Thymidine phosphorylase): 10.7 µM
Molecule: CCc1ccc(/C(=N\O)n2cc(I)c(=O)[nH]c2=O)cc1

IC50 (Thymidine phosphorylase): 7.2 µM
Molecule: Cc1ccc(/C(=N/O)n2c(C)cc(=O)[nH]c2=O)cc1
Activity (NIH3T3 [1]): Non-Toxic

IC50 (Thymidine phosphorylase): 3.4 µM
Molecule: CCc1ccc(/C(=N/O)n2c(C)cc(=O)[nH]c2=O)cc1
Activity (NIH3T3 [1]): Non-Toxic

IC50 (Thymidine phosphorylase): 2.7 µM
Molecule: Cc1cc(=O)[nH]c(=O)n1/C(=N\O)c1ccc(Br)cc1

IC50 (Thymidine phosphorylase): 1.4 µM
Molecule: Cc1cc(=O)[nH]c(=O)n1/C(=N\O)c1ccc(Cl)cc1
Activity (NIH3T3 [1]): Non-Toxic

Stability [3]: Stable
remaining at 240 h [4]: 87%
IC50 (Thymidine phosphorylase): 0.12 µM
Molecule: Cc1cc(=O)[nH]c(=O)n1/C(=N\O)c1ccc(Cl)c(Cl)c1
Activity (NIH3T3 [1]): Non-Toxic
